Measurements taken from patent US8404619B2, “Particulate plant treatment composition” (Maruo Calcium Company Limited, priority 2005, dated 2013).

What was measured:
Type in all cases: in vivo
[1] = system: mandarin orange tree (Satsuma mandarin); experiment: preventing peel puffing and improving fruit quality, leaf spray on mandarin orange tree; conditions: for Fruit skin color: color chart 0 (poorly colored) to 12 (fully colored); for Degree of peel puffing: peel puffing index, 20 fruits, sprayed three times; for Phytotoxicity: scale of 1 to 5; for Sugar content: sugar refractometer; for Acidity: titratable citric acid content
Experimental: The effects of a quality improver in preventing peel puffing and improving fruit quality were evaluated using a mandarin orange tree (Satsuma mandarin). That is, the quality improver of Example 1 was sprayed on the mandarin orange tree at the polyvalent metal concentrations shown in Table 2 over three times from early September (one-month interval). Each treatment was conducted on each branch by spraying with a backpack sprayer.
The evaluation was carried out on 20 randomly selected fruits. The degree of peel puffing was evaluated by examining cross sections of the fruits based on a 4-point scale (none=0, mild=1, moderate=2, severe=3), and expressed by the following equation: peel puffing index={(1×the number of fruits with mild peel puffing)+(2×the number of fruits with moderate peel puffing)+(3×the number of fruits with severe peel puffing)}×100/(3×the number of fruits examined). The fruit skin color was determined using a color chart based on a scale of 0 (poorly colored) to 12 (fully colored). The sugar content was determined using a sugar refractometer. The acidity was expressed as titratable citric acid content. The dirt on a fruit surface was evaluated by a ratio of the surface area soiled whitish to the total surface area of the fruit on a scale of 1 to 5 (not soiled=1, slightly soiled=2, a little soiled=3, moderately soiled=4, much soiled=5). The phytotoxicity was evaluated on a scale of 1 to 5 (normal=1, slightly damaged=2, a little damaged=3, moderately damaged=4, much damaged=5).
The examinations were carried out in the same manner as in Application Example 1 except that the quality improvers of Examples 2 to 21 and Comparative Examples 1 to 4 were used instead of the quality improver of Example 1.

[2] = system: Welsh onion plant (Sakaiyakko); experiment: reducing leaf blight and improving quality, spray on Welsh onion plant; conditions: for Leaf blight: leaf blight index, 50 plants, sprayed three times; for Phytotoxicity: scale of 1 to 5
Experimental: The effects of a quality improver in reducing leaf blight and improving fruit quality were evaluated using a Welsh onion plant (Sakaiyakko).
That is, the quality improver of Example 1 was sprayed on the Welsh onion at the polyvalent metal concentrations shown in Table 7 over three times from early June (one-week interval) using a backpack sprayer.
The evaluation was carried out on 50 randomly selected plants. The leaf blight was determined by evaluating the degree of leaf blight based on a 4-point scale (none=0, mild=1, moderate=2, severe=3), and expressed by the following equation: leaf blight index={(1×the number of plants with mild leaf blight)+(2×the number of plants with moderate leaf blight)+(3×the number of plants with severe leaf blight)}×100/(3× the number of plants examined). In addition, plant length, plant weight, the number of leaves, and yield were evaluated. The dirt on a leaf surface was evaluated by a ratio of the surface area soiled whitish to the total surface area of the leaf on a scale of 1 to 5 (not soiled=1, slightly soiled=2, a little soiled=3, moderately soiled=4, much soiled=5). The phytotoxicity was evaluated on a scale of 1 to 5 (normal=1, slightly damaged=2, a little damaged=3, moderately damaged=4, much damaged=5).
The examinations were carried out in the same manner as in Application Example 43 except that the quality improvers of Examples 2 to 21 and Comparative Examples 1 to 4 were used instead of the quality improver of Example 1.

pear tree (Housui) = experiment: reducing water core and improving fruit quality, spray on pear tree
Experimental: The effects of a quality improver in reducing water core and improving fruit quality were evaluated using a pear tree (Housui).
That is, the quality improver of Example 1 was sprayed on the pear tree at the polyvalent metal concentrations shown in Table 14 over four times from late April (ten-day interval) and two times from middle July (ten-day interval). Each treatment was conducted on each branch by spraying with a backpack sprayer.
The evaluation was carried out on 30 randomly selected fruits. The degree of water core was evaluated by examining three cross sections of the stalk cavity part, the equatorial part, and the calyx end part of the fruit based on a 4-point scale (none=0, mild=1, moderate=2, severe=3). The result of the evaluation was expressed by the following equation: water core index={(1×the number of fruits with mild water core)+(2×the number of fruits with moderate water core)+(3×the number of fruits with severe water core)}/(the number of fruits examined). The fruit with a water core index of 2 or 3 was considered as a seriously damaged fruit. The ground color of fruit skin was determined using a color chart for Japanese pear based on a scale of 1 (immature) to 6 (overmature). The sugar content was determined using a sugar refractometer. The dirt on a fruit surface was evaluated by a ratio of the surface area soiled whitish to the total surface area of the fruit on a scale of 1 to 5 (not soiled=1, slightly soiled=2, a little soiled=3, moderately soiled=4, much soiled=5). The phytotoxicity was evaluated on a scale of 1 to 5 (normal=1, slightly damaged=2, a little damaged=3, moderately damaged=4, much damaged=5).
The examinations were carried out in the same manner as in Application Example 94 except that the quality improvers of Examples 2 to 4, 6 to 7, 12, 14, 17 to 18, and Comparative Examples 1 to 4 were used instead of the quality improver of Example 1.

SMILES | Fruit skin color ([1]; polyvalent metal 0.030 wt. %) | Fruit skin color ([1]; polyvalent metal 0.075 wt. %) | Degree of peel puffing ([1]; polyvalent metal 0.030 wt. %) | Degree of peel puffing ([1]; polyvalent metal 0.075 wt. %) | Phytotoxicity ([1]; polyvalent metal 0.030 wt. %) | Phytotoxicity ([1]; polyvalent metal 0.075 wt. %) | Sugar content ([1]; polyvalent metal 0.030 wt. %) | Sugar content ([1]; polyvalent metal 0.075 wt. %) | Acidity ([1]; polyvalent metal 0.030 wt. %) | Acidity ([1]; polyvalent metal 0.075 wt. %) | Leaf blight ([2]; polyvalent metal 0.030 wt. %) | Leaf blight ([2]; polyvalent metal 0.075 wt. %) | Number of leaves ([2]; polyvalent metal 0.030 wt. %) | Plant length ([2]; polyvalent metal 0.030 wt. %) | Plant weight ([2]; polyvalent metal 0.030 wt. %) | Number of leaves ([2]; polyvalent metal 0.075 wt. %) | Plant length ([2]; polyvalent metal 0.075 wt. %) | Plant weight ([2]; polyvalent metal 0.075 wt. %) | Phytotoxicity ([2]; polyvalent metal 0.030 wt. %) | Phytotoxicity ([2]; polyvalent metal 0.075 wt. %) | also measured
[Ca+2].[Cl-].[Cl-] [calcium chloride] | 9.5 | 9.9 | 47.0 | 42.0 | 4 | 4 | 10.0 | 10.1 | 1.00 | 0.99 | 42.0 | 40.0 | 30.3 | 59.2 | 185 | 31.3 | 60.9 | 189 | 4 | 4 | Ground color (pear tree (Housui); polyvalent metal 0.030 wt. %): 3.7; Phytotoxicity (pear tree (Housui); polyvalent metal 0.030 wt. %): 4; Seriously damaged fruit (pear tree (Housui); polyvalent metal 0.030 wt. %): 30.0%; Sugar content (pear tree (Housui); polyvalent metal 0.030 wt. %): 12.8; Water core index (pear tree (Housui); polyvalent metal 0.030 wt. %): 0.97; Ground color (pear tree (Housui); polyvalent metal 0.075 wt. %): 3.5; Phytotoxicity (pear tree (Housui); polyvalent metal 0.075 wt. %): 4; Seriously damaged fruit (pear tree (Housui); polyvalent metal 0.075 wt. %): 26.7%; Sugar content (pear tree (Housui); polyvalent metal 0.075 wt. %): 12.6; Water core index (pear tree (Housui); polyvalent metal 0.075 wt. %): 0.90
O=C[O-].O=C[O-].[Ca+2] [calcium formate] | 10.0 | 10.4 | 47.5 | 42.5 | 3 | 3 | 10.5 | 11.1 | 0.93 | 0.95 | 30.0 | 28.0 | 34.2 | 60.8 | 185 | 35.6 | 62.8 | 191 | 3 | 3 | Ground color (pear tree (Housui); polyvalent metal 0.030 wt. %): 3.6; Phytotoxicity (pear tree (Housui); polyvalent metal 0.030 wt. %): 3; Seriously damaged fruit (pear tree (Housui); polyvalent metal 0.030 wt. %): 23.3%; Sugar content (pear tree (Housui); polyvalent metal 0.030 wt. %): 13.0; Water core index (pear tree (Housui); polyvalent metal 0.030 wt. %): 0.80; Ground color (pear tree (Housui); polyvalent metal 0.075 wt. %): 3.8; Phytotoxicity (pear tree (Housui); polyvalent metal 0.075 wt. %): 3; Seriously damaged fruit (pear tree (Housui); polyvalent metal 0.075 wt. %): 16.7%; Sugar content (pear tree (Housui); polyvalent metal 0.075 wt. %): 13.2; Water core index (pear tree (Housui); polyvalent metal 0.075 wt. %): 0.77
